Laboratory results published in patent publication US20240050428A1 (Cullgen (Shanghai), Inc., priority 2020, published 2024).
Like-named read-outs stand apart in the source and are kept apart here.

Assays:
MV4;11 cells = test: Cell viability assay (CellTiter-Glo) in MV4;11 cells, alone or with gilteritinib; format: cell-based; conditions: Homo sapiens, MV4-11, 72 h, MV4;11 cells, CellTiter-Glo, read-out: MV4
MOLM-13 cells = test: Cell viability assay (CellTiter-Glo) in MOLM-13 cells, alone or with gilteritinib; format: cell-based; conditions: Homo sapiens, MOLM-13, 72 h, MOLM-13 cells, CellTiter-Glo
[1] = compound alone (without gilteritinib), three days, 11 IC50
[2] = with gilteritinib 10 nM, three days, 11 IC50 gilteritinib
[3] = compound alone (without gilteritinib), three days, read-out: MOLM-13 IC50
[4] = with gilteritinib 20 nM, three days, read-out: MOLM-13 IC50 gilteritinib
[5] = compound with gilteritinib 10 nM, three days, 11 IC50 gilteritinib
[6] = compound with gilteritinib 20 nM, three days, read-out: MOLM-13 IC50 gilteritinib

| IC50 (MV4;11 cells; [1]) | IC50 (MV4;11 cells; [2]) | IC50 (MOLM-13 cells; [3]) | IC50 (MOLM-13 cells; [4]) | IC50 (MV4;11 cells; [5]) | IC50 (MOLM-13 cells; [6]) | IC50 (MV4;11 cells; with 10 nM gilteritinib, 3 days, 11 IC50 gilteritinib) | IC50 (MV4;11 cells; without gilteritinib, 3 days, 11 IC50) | IC50 (MOLM-13 cells; with 20 nM gilteritinib, 3 days, read-out: MOLM-13 IC50 gilteritinib) | IC50 (MOLM-13 cells; without gilteritinib, 3 days, read-out: MOLM-13 IC50) | Compound |
| --- | --- | --- | --- | --- | --- | --- | --- | --- | --- | --- |
| 10 to 100 nM | < 10 nM | 10 to 100 nM | < 10 nM |  |  |  |  |  |  | O=C1CCC(N2C(=O)c3ccc(NCCC[C@H]4C[C@H](n5cc(-c6cnc7ccc(NC8CCNCC8)cc7n6)cn5)C4)cc3C2=O)C(=O)N1 (stereo partly drawn) [GS-196, 2-(2,6-Dioxopiperidin-3-yl)-5-((3-(trans-3-(4-(7-(piperidin-4-ylamino)quinoxalin-2-yl)-1H-pyrazol-1-yl)cyclobutyl)propyl)amino)isoindoline-1,3-dione] |
| 100 to 1000 nM |  | 100 to 1000 nM |  | 10 to 100 nM | < 10 nM |  |  |  |  | O=C1CCC(N2C(=O)c3ccc(NCCCC4CC(n5cc(-c6cnc7ccc(NC8COC8)cc7n6)cn5)C4)cc3C2=O)C(=O)N1 (centres unmarked) [GS-567, 2-(2,6-Dioxopiperidin-3-yl)-5-((3-(3-(4-(7-(oxetan-3-ylamino)quinoxalin-2-yl)-1H-pyrazol-1-yl)cyclobutyl)propyl)amino)isoindoline-1,3-dione] |
| 10 to 100 nM | 10 to 100 nM | 100 to 1000 nM | 10 to 100 nM |  |  |  |  |  |  | O=C1CCC(N2C(=O)c3ccc(NC[C@H]4C[C@H](n5cc(-c6nccc7cn[nH]c67)c(C6CC6)n5)C4)cc3C2=O)C(=O)N1 (stereo partly drawn) [GS-310, 5-(((trans-3-(3-Cyclopropyl-4-(1H-pyrazolo[3,4-c]pyridin-7-yl)-1H-pyrazol-1-yl)cyclobutyl)methyl)amino)-2-(2,6-dioxopiperidin-3-yl)isoindoline-1,3-dione] |
| > 1000 nM | 100 to 1000 nM | > 1000 nM | 100 to 1000 nM |  |  |  |  |  |  | O=C1CCC(N2C(=O)c3ccc(NCCC[C@H]4C[C@H](n5cc(-c6cnc7ccc(N8CCNC9(CC9)C8)cc7n6)cn5)C4)cc3C2=O)C(=O)N1 (stereo partly drawn) [GS-220, 5-((3-(trans-3-(4-(7-(4,7-Diazaspiro[2.5]octan-7-yl)quinoxalin-2-yl)-1H-pyrazol-1-yl)cyclobutyl)propyl)amino)-2-(2,6-dioxopiperidin-3-yl)isoindoline-1,3-dione] |
| 100 to 1000 nM |  | 100 to 1000 nM |  | < 10 nM | < 10 nM |  |  |  |  | CN1CCC(c2ccc3ncc(-c4cnn(CCCCCCNc5ccc6c(c5)C(=O)N(C5CCC(=O)NC5=O)C6=O)c4)nc3c2)CC1 (centres unmarked) [GS-548, 2-(2,6-Dioxopiperidin-3-yl)-5-((6-(4-(7-(1-methylpiperidin-4-yl)quinoxalin-2-yl)-1H-pyrazol-1-yl)hexyl)amino)isoindoline-1,3-dione] |
| > 1000 nM | 100 to 1000 nM | > 1000 nM | 100 to 1000 nM |  |  |  |  |  |  | O=C(CC1CC(N2CCC(n3cc(-c4cnc5ccccc5n4)cn3)CC2)C1)NCc1ccc2c(c1)CN(C1CCC(=O)NC1=O)C2=O (centres unmarked) [GS-082, N-((2-(2,6-Dioxopiperidin-3-yl)-1-oxoisoindolin-5-yl)methyl)-2-(3-(4-(4-(quinoxalin-2-yl)-1H-pyrazol-1-yl)piperidin-1-yl)cyclobutyl)acetamide] |
| > 1000 nM | > 1000 nM | > 1000 nM | > 1000 nM |  |  |  |  |  |  | CN1CCN(c2cccc3ncc(-c4cnn(C5CC(CNc6ccc7c(c6)C(=O)N(C6CCC(=O)NC6=O)C7=O)C5)c4)nc23)CC1 (centres unmarked) [GS-398, 2-(2,6-Dioxopiperidin-3-yl)-5-(((3-(4-(8-(4-methylpiperazin-1-yl)quinoxalin-2-yl)-1H-pyrazol-1-yl)cyclobutyl)methyl)amino)isoindoline-1,3-dione] |
| > 1000 nM | > 1000 nM | > 1000 nM | 100 to 1000 nM |  |  |  |  |  |  | O=C1CCC(N2C(=O)c3ccc(NCCCCCC(=O)N4CC(Oc5ccccc5)C4)cc3C2=O)C(=O)N1 (centres unmarked) [GS-334, 2-(2,6-Dioxopiperidin-3-yl)-5-((6-oxo-6-(3-phenoxyazetidin-1-yl)hexyl)amino)isoindoline-1,3-dione] |
| > 1000 nM | > 1000 nM | > 1000 nM | 100 to 1000 nM |  |  |  |  |  |  | O=C1CCC(N2C(=O)c3ccc(NCCCc4cccc(-n5cc(-c6cnc7ccccc7n6)cn5)c4)cc3C2=O)C(=O)N1 (centres unmarked) [GS-365, 2-(2,6-Ddioxopiperidin-3-yl)-5-((3-(3-(4-(quinoxalin-2-yl)-1H-pyrazol-1-yl)phenyl)propyl)amino)isoindoline-1,3-dione] |
| 10 to 100 nM | < 10 nM | 10 to 100 nM | < 10 nM |  |  |  |  |  |  | O=C1CCC(N2C(=O)c3ccc(NCCCCCC(=O)N4CCC(F)(c5ccccc5)CC4)cc3C2=O)C(=O)N1 (centres unmarked) [GS-348, 2-(2,6-Dioxopiperidin-3-yl)-5-((6-(4-fluoro-4-phenylpiperidin-1-yl)-6-oxohexyl)amino)isoindoline-1,3-dione] |
| 100 to 1000 nM | 10 to 100 nM | 100 to 1000 nM | 10 to 100 nM |  |  |  |  |  |  | O=C1CCC(N2C(=O)c3ccc(NC[C@H]4C[C@H](n5cc(-c6cc7[nH]cnc7cn6)c(C6CC6)n5)C4)cc3C2=O)C(=O)N1 (stereo partly drawn) [GS-307, 5-(((trans-3-(3-Cyclopropyl-4-(1H-imidazo[4,5-c]pyridin-6-yl)-1H-pyrazol-1-yl)cyclobutyl)methyl)amino)-2-(2,6-dioxopiperidin-3-yl)isoindoline-1,3-dione] |
| 100 to 1000 nM | 10 to 100 nM | > 1000 nM | 10 to 100 nM |  |  |  |  |  |  | O=C1CCC(N2C(=O)c3ccc(NCCCC4CC(n5cc(-c6cnc7ccccc7n6)cn5)C4)cc3C2=O)C(=O)N1 (centres unmarked) [GS-107, 2-(2,6-Dioxopiperidin-3-yl)-5-((3-(3-(4-(quinoxalin-2-yl)-1H-pyrazol-1-yl)cyclobutyl)propyl)amino)isoindoline-1,3-dione] |
| 100 to 1000 nM |  | > 1000 nM |  | 10 to 100 nM | 10 to 100 nM |  |  |  |  | O=C1CCC(N2C(=O)c3ccc(NCCC[C@H]4C[C@@H](n5cc(-c6cnc7cc(C8CCOCC8)ccc7n6)cn5)C4)cc3C2=O)C(=O)N1 (stereo partly drawn) [GS-430, 2-(2,6-dioxopiperidin-3-yl)-5-((3-(cis-3-(4-(6-(tetrahydro-2H-pyran-4-yl)quinoxalin-2-yl)-1H-pyrazol-1-yl)cyclobutyl)propyl)amino)isoindoline-1,3-dione] |
| 10 to 100 nM | < 10 nM | 10 to 100 nM | < 10 nM |  |  |  |  |  |  | Cc1nc(-c2cn([C@H]3C[C@H](CNc4ccc5c(c4)C(=O)N(C4CCC(=O)NC4=O)C5=O)C3)nc2C2CC2)ccc1F (stereo partly drawn) [GS-305, 5-(((trans-3-(3-Cyclopropyl-4-(5-fluoro-6-methylpyridin-2-yl)-1H-pyrazol-1-yl)cyclobutyl)methyl)amino)-2-(2,6-dioxopiperidin-3-yl)isoindoline-1,3-dione] |
| > 1000 nM | 100 to 1000 nM | > 1000 nM | 10 to 100 nM |  |  |  |  |  |  | O=C1CCC(N2Cc3c(OCc4ccc(CN5CCC(n6cc(-c7cnc8ccccc8n7)cn6)CC5)cc4)cccc3C2=O)C(=O)N1 (centres unmarked) [GS-108, 3-(1-Oxo-4-((4-((4-(4-(quinoxalin-2-yl)-1H-pyrazol-1-yl)piperidin-1-yl)methyl)benzyl)oxy)isoindolin-2-yl)piperidine-2,6-dione] |
| 100 to 1000 nM | < 10 nM | > 1000 nM | 10 to 100 nM |  |  |  |  |  |  | O=C1CCC(N2C(=O)c3ccc(NCCCCCCn4cc(-c5cnc6ccccc6n5)cn4)cc3C2=O)C(=O)N1 (centres unmarked) [GS-339, 2-(2,6-Dioxopiperidin-3-yl)-5-((6-(4-(quinoxalin-2-yl)-1H-pyrazol-1-yl)hexyl)amino)isoindoline-1,3-dione] |
| 10 to 100 nM |  | 100 to 1000 nM |  | < 10 nM | 10 to 100 nM |  |  |  |  | O=C1CCC(N2C(=O)c3ccc(NCCC[C@H]4C[C@H](n5cc(-c6cccc(C7CC7)n6)cn5)C4)cc3C2=O)C(=O)N1 (stereo partly drawn) [GS-447, 5-((3-(trans-3-(4-(6-cyclopropylpyridin-2-yl)-1H-pyrazol-1-yl)cyclobutyl)propyl)amino)-2-(2,6-dioxopiperidin-3-yl)isoindoline-1,3-dione] |
| > 1000 nM | > 1000 nM | > 1000 nM | > 1000 nM |  |  |  |  |  |  | O=C1CCC(N2Cc3c(NC4CCCC(CCCCn5cc(-c6cnc7ccccc7n6)cn5)C4)cccc3C2=O)C(=O)N1 (centres unmarked) [GS-142, 3-(1-Oxo-4-((3-(4-(4-(quinoxalin-2-yl)-1H-pyrazol-1-yl)butyl)cyclohexyl)amino)isoindolin-2-yl)piperidine-2,6-dione] |
|  |  |  |  |  |  | > 10000 nM | > 10000 nM | 270 nM | > 10000 nM | O=C1CCC(N2C(=O)c3ccc(NCCCCCC(=O)N4CCC(N5CCOCC5)CC4)cc3C2=O)C(=O)N1 (centres unmarked) [GS-011, 2-(2,6-Dioxopiperidin-3-yl)-5-((6-(4-morpholinopiperidin-1-yl)-6-oxohexyl)amino)isoindoline-1,3-dione] |
| < 10 nM | < 10 nM | < 10 nM | < 10 nM |  |  |  |  |  |  | O=C1CCC(N2C(=O)c3ccc(NCCC[C@H]4C[C@@H](n5cc(-c6cnc7ccc(C8CCOCC8)cc7n6)c(C6CC6)n5)C4)cc3C2=O)C(=O)N1 (stereo partly drawn) [GS-213, 5-((3-(cis-3-(3-Cyclopropyl-4-(7-(tetrahydro-2H-pyran-4-yl)quinoxalin-2-yl)-1H-pyrazol-1-yl)cyclobutyl)propyl)amino)-2-(2,6-dioxopiperidin-3-yl)isoindoline-1,3-dione] |
